In PubChem BioAssay (NCI):
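Growth conditions: 96-well plates. Treatment: test compound, 48 hours, 5 concentrations. Analysis: linear interpolation between bracketing concentrations; unreached endpoints set to highest concentration. At the TGI there is no net growth.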

Assays:
Assay in all cases: NCI anticancer screen, dose series, 48 h
SNB-19 CNS = tested on: SNB-19 CNS
SN12C renal = tested on: SN12C renal
786-0 renal = tested on: 786-0 renal
OVCAR-8 ovarian = tested on: OVCAR-8 ovarian
SW-620 colon = tested on: SW-620 colon
HL-60(TB) leukemia = tested on: HL-60(TB) leukemia
SK-MEL-5 melanoma = tested on: SK-MEL-5 melanoma
HOP-92 NSCLC = tested on: HOP-92 NSCLC
KM12 colon = tested on: KM12 colon
RXF 393 renal = tested on: RXF 393 renal
HCC-2998 colon = tested on: HCC-2998 colon

| Structure (SMILES) | TGI (SNB-19 CNS) | TGI (SN12C renal) | TGI (786-0 renal) | TGI (OVCAR-8 ovarian) | TGI (SW-620 colon) | TGI (HL-60(TB) leukemia) | TGI (SK-MEL-5 melanoma) | TGI (HOP-92 NSCLC) | TGI (KM12 colon) | TGI (RXF 393 renal) | TGI (HCC-2998 colon) |
| --- | --- | --- | --- | --- | --- | --- | --- | --- | --- | --- | --- |
| C(=NCc1ccccc1)c1ccccc1-c1ccccc1C=NCc1ccccc1 | > 10 µM | > 10 µM | > 10 µM | > 10 µM | > 10 µM | 5.73 µM | > 10 µM | > 10 µM | > 10 µM | > 10 µM | – |
| COc1ccc(NC(C)=O)cc1C1CCC(=O)N1 (centres undefined) | > 100 µM | > 100 µM | > 100 µM | > 100 µM | > 100 µM | > 100 µM | > 100 µM | > 100 µM | > 100 µM | – | > 100 µM |
| COc1ccc(C(c2c[nH]c3ccc(Br)cc23)c2c[nH]c3ccc(Br)cc23)cc1 | 1.76 µM | – | 1.07 µM | – | 1.1 µM | 0.346 µM | 1.12 µM | 2.07 µM | 0.468 µM | 0.578 µM | 0.353 µM |
| COc1ccc(C2=C(N)c3c(OC)cccc3C2=O)cc1 | > 100 µM | > 100 µM | > 100 µM | > 100 µM | > 100 µM | > 100 µM | – | – | > 100 µM | 31.5 µM | > 100 µM |
| COc1cc(NP(=O)(Oc2ccccc2)Oc2ccccc2)ccc1Nc1c2ccccc2nc2c1[nH]c1ccccc12 | > 100 µM | 2.09 µM | 1.58 µM | – | 12.9 µM | – | 10.3 µM | 3.8 µM | > 100 µM | 14.1 µM | 23.2 µM |
| O=C(C[n+]1ccccc1)N=N/C(C(=O)Nc1c(Cl)c(O)c2ccccc2c1O)=C1/C(=O)Oc2cc(O)ccc2C1=O | – | 15.1 µM | > 100 µM | 35.3 µM | 20.6 µM | > 100 µM | 2.26 µM | 48.8 µM | > 100 µM | 21.7 µM | 12.8 µM |
| O=C(O)c1ccccc1C(=O)Nn1cnnc1 | > 100 µM | > 100 µM | > 100 µM | > 100 µM | > 100 µM | – | > 100 µM | > 100 µM | > 100 µM | > 100 µM | > 100 µM |
| O=C(C1C(c2ccccc2)N1C(c1ccccc1)c1ccccc1)C1C(c2ccccc2)N1C(c1ccccc1)c1ccccc1 (centres undefined) | > 100 µM | 46.9 µM | 48.2 µM | > 100 µM | 37.2 µM | 12 µM | 49.8 µM | – | 72.8 µM | – | 37.8 µM |
| Cc1ccc(SCC(CF)OCn2cc(F)c(=O)[nH]c2=O)cc1 (centres undefined) | > 100 µM | – | > 100 µM | > 100 µM | > 100 µM | > 100 µM | > 100 µM | > 100 µM | – | > 100 µM | > 100 µM |
| CN(/N=C/c1ccccn1)C1=NCCCCN1 | > 100 µM | – | > 100 µM | > 100 µM | > 100 µM | > 100 µM | > 100 µM | > 100 µM | > 100 µM | > 100 µM | > 100 µM |
| O=C1c2ccccc2-c2ccc(N=Nc3c(O)ccc4ccccc34)cc21 | > 100 µM | > 100 µM | > 100 µM | > 100 µM | > 100 µM | – | > 100 µM | > 100 µM | > 100 µM | > 100 µM | – |
| CC1=C(C(=O)NCCc2ccccc2)CC(C(=O)NCCc2ccccc2)=C(C)N1 | 72.5 µM | > 100 µM | > 100 µM | > 100 µM | > 100 µM | > 100 µM | – | > 100 µM | > 100 µM | > 100 µM | > 100 µM |
| O=c1oc2ccccc2nc1/C=C(\O)c1ccc([N+](=O)[O-])cc1 | > 100 µM | > 100 µM | > 100 µM | > 100 µM | – | – | > 100 µM | – | > 100 µM | > 100 µM | > 100 µM |
| CCOC(=O)C1C(c2ccc(OC)cc2)c2c([nH][nH]c2=O)CC1(O)OCC (centres undefined) | > 100 µM | > 100 µM | > 100 µM | > 100 µM | > 100 µM | > 100 µM | > 100 µM | > 100 µM | > 100 µM | – | > 100 µM |
| CNn1c(C)n[nH]c1=O | > 100 µM | > 100 µM | > 100 µM | > 100 µM | > 100 µM | > 100 µM | > 100 µM | > 100 µM | > 100 µM | – | > 100 µM |
| N#Cc1c(Cl)/c(=C/O)c(=O)n2c1nc1ccccc12 | > 100 µM | > 100 µM | > 100 µM | > 100 µM | > 100 µM | 89.6 µM | > 100 µM | 68.1 µM | > 100 µM | – | > 100 µM |
| O=C1CCC2CCC1C2 (centres undefined) | > 100 µM | > 100 µM | > 100 µM | > 100 µM | – | > 100 µM | > 100 µM | – | > 100 µM | > 100 µM | > 100 µM |
| Cc1nn(-c2ccccc2)c2[nH]c(=S)cnc12 | > 100 µM | > 100 µM | > 100 µM | > 100 µM | > 100 µM | > 100 µM | – | > 100 µM | – | > 100 µM | – |
| [N-]=[NH+]CC(=O)OC(COCc1ccccc1)COCc1ccccc1 | > 100 µM | > 100 µM | > 100 µM | – | > 100 µM | > 100 µM | > 100 µM | > 100 µM | 86.2 µM | > 100 µM | > 100 µM |
| Cc1cccc(C)c1NC(=S)NC=C(C(N)=O)C(N)=O | > 100 µM | > 100 µM | > 100 µM | > 100 µM | > 100 µM | – | > 100 µM | > 100 µM | > 100 µM | > 100 µM | > 100 µM |
| COc1cc(C=Nc2ccc(C(C)C)cc2)cc(OC)c1OC | > 100 µM | > 100 µM | > 100 µM | > 100 µM | > 54.6 µM | > 82.3 µM | > 100 µM | > 100 µM | > 100 µM | > 100 µM | – |
| COc1cc(C2C3=C(COC3=O)Oc3cc4c(cc32)OCO4)ccc1OC(C)=O (centres undefined) | > 100 µM | > 100 µM | > 100 µM | > 56.4 µM | > 100 µM | 0.907 µM | > 100 µM | – | 23.8 µM | > 100 µM | 5.96 µM |
